Test results reported in ChEMBL document CHEMBL1201862, “PubChem BioAssay data set” (2004).
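Dose response: 5 concentrations. Exposure: 48 h. Format: 96-well plates. Endpoint: linear interpolation; highest concentration if not reached. Here, GI50 denotes the concentration required for 50% inhibition of growth.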 Calls of active or inactive are those of the source. Cut-off read from the data, not from the text of the source: active = GI50 up to about 1.1 µM and inactive = higher.

Columns and labels:
Assay in all cases: inhibition of tumour cell growth, NCI panel, 48 h
A549 = system: A549
ACHN = system: ACHN
HOP-92 = system: HOP-92
HCT-15 = system: HCT-15
SK-MEL-5 = system: SK-MEL-5
HT-29 = system: HT-29
M14 = system: M14
CAKI-1 = system: CAKI-1
COLO 205 = system: COLO 205
U-251 = system: U-251
HCT-116 = system: HCT-116
NCI/ADR-RES = system: NCI/ADR-RES
NCI-H226 = system: NCI-H226
OVCAR-5 = system: OVCAR-5
PC-3 = system: PC-3
UACC-257 = system: UACC-257
LOX IMVI = system: LOX IMVI
MOLT-4 = system: MOLT-4
UACC-62 = system: UACC-62
RXF 393 = system: RXF 393

With `O=C1C(Cl)C2(CC(/C=C/c3cccs3)=NN2c2cccc(S(=O)(=O)O)c2)N1c1nc2ccccc2s1` (stereo not given) the GI50 (A549) was 42 µM (inactive), the GI50 (ACHN) was 58.3 µM (inactive) and the GI50 (HOP-92) was 1.79 µM (inactive). The GI50 (HCT-15) was 75.9 µM, the GI50 (SK-MEL-5) was 16.9 µM (inactive) and the GI50 (HT-29) was 73.5 µM (inactive). For the same compound, the GI50 (M14) was 99.3 µM (inactive), the GI50 (CAKI-1) was 37.1 µM (inactive) and the GI50 (COLO 205) was > 100 µM (inactive). For the same compound, the GI50 (U-251) was 99.8 µM (inactive), the GI50 (HCT-116) was > 100 µM (inactive) and the GI50 (NCI/ADR-RES) was > 100 µM (inactive). The GI50 (NCI-H226) was 27.9 µM (inactive), the GI50 (OVCAR-5) was > 100 µM (inactive) and the GI50 (PC-3) was > 100 µM (inactive). For the same compound, the GI50 (UACC-257) was 76.9 µM (inactive), the GI50 (LOX IMVI) was 15.1 µM (inactive) and the GI50 (MOLT-4) was 31.5 µM (inactive). For the same compound, the GI50 (UACC-62) was 59.6 µM (inactive) and the GI50 (RXF 393) was > 100 µM (inactive).

In the case of `CCc1ncc(C(C)(O)c2ccccc2)n1Cc1ccccc1` (stereo not given), the GI50 (A549) is reported as 35.5 µM (inactive), the GI50 (ACHN) is reported as 82.2 µM (inactive) and the GI50 (HOP-92) is reported as 67.3 µM (inactive). The GI50 (HCT-15) was 41.5 µM, the GI50 (SK-MEL-5) was 17.8 µM (inactive) and the GI50 (HT-29) was 31.8 µM (inactive). The GI50 (M14) was 0.294 µM (active), the GI50 (CAKI-1) was 35.4 µM (inactive) and the GI50 (COLO 205) was 27.8 µM (inactive). The GI50 (U-251) was 34.6 µM (inactive), the GI50 (HCT-116) was 0.124 µM (active) and the GI50 (NCI/ADR-RES) was 37.7 µM (inactive). For the same compound, the GI50 (NCI-H226) was 21.5 µM (inactive), the GI50 (OVCAR-5) was 98.6 µM (inactive) and the GI50 (PC-3) was 43.4 µM (inactive). For the same compound, the GI50 (UACC-257) was 29.4 µM (inactive), the GI50 (LOX IMVI) was 29.8 µM (inactive) and the GI50 (MOLT-4) was 22.5 µM (inactive). The GI50 (UACC-62) was 20.9 µM (inactive) and the GI50 (RXF 393) was > 100 µM (inactive).

With `C=CCCON(C(=O)OC(C)(C)C)c1ccccc1` the GI50 (A549) was > 100 µM (inactive), the GI50 (ACHN) was > 100 µM (inactive) and the GI50 (HOP-92) was > 100 µM (inactive). The GI50 (HCT-15) was greater than 100 µM, the GI50 (SK-MEL-5) was > 100 µM (inactive) and the GI50 (HT-29) was 47.9 µM (inactive). For the same compound, the GI50 (M14) was > 100 µM (inactive), the GI50 (CAKI-1) was > 100 µM (inactive) and the GI50 (COLO 205) was > 100 µM (inactive). For the same compound, the GI50 (U-251) was > 100 µM (inactive), the GI50 (HCT-116) was 44.6 µM (inactive) and the GI50 (NCI/ADR-RES) was 67 µM (inactive). For the same compound, the GI50 (NCI-H226) was > 100 µM (inactive), the GI50 (OVCAR-5) was > 100 µM (inactive) and the GI50 (PC-3) was 4.12 µM (inactive). The GI50 (UACC-257) was > 100 µM (inactive), the GI50 (LOX IMVI) was > 100 µM (inactive) and the GI50 (MOLT-4) was 42.6 µM (inactive). The GI50 (UACC-62) was > 100 µM (inactive) and the GI50 (RXF 393) was > 100 µM (inactive).

In the case of `N=c1n(C(=O)N2CCCC2)c2cc(Cl)ccc2n1C1=NCCN1`, the GI50 (A549) is reported as > 100 µM (inactive), the GI50 (ACHN) is reported as 43.7 µM (inactive) and the GI50 (HOP-92) is reported as 15.2 µM (inactive). For the same compound, the GI50 (HCT-15) was 40.6 µM, the GI50 (SK-MEL-5) was 83 µM (inactive) and the GI50 (HT-29) was 75.7 µM (inactive). The GI50 (M14) was 59.6 µM (inactive), the GI50 (CAKI-1) was 43.2 µM (inactive) and the GI50 (COLO 205) was > 100 µM (inactive). For the same compound, the GI50 (U-251) was 83.2 µM (inactive), the GI50 (HCT-116) was 55.5 µM (inactive) and the GI50 (NCI/ADR-RES) was 93.5 µM (inactive). For the same compound, the GI50 (NCI-H226) was > 100 µM (inactive), the GI50 (OVCAR-5) was > 100 µM (inactive) and the GI50 (PC-3) was 86.9 µM (inactive). For the same compound, the GI50 (UACC-257) was > 100 µM (inactive), the GI50 (LOX IMVI) was 28.3 µM (inactive) and the GI50 (MOLT-4) was 41.7 µM (inactive). For the same compound, the GI50 (UACC-62) was > 100 µM (inactive) and the GI50 (RXF 393) was 82.4 µM (inactive).

`O=c1oc2ccc(-n3c(=O)c4ccccc4c4ccccc4c3=O)cc2c2ccccc12` was tested, and the GI50 (A549) was > 100 µM (inactive), the GI50 (ACHN) was > 100 µM (inactive) and the GI50 (HOP-92) was 36.5 µM (inactive). The GI50 (HCT-15) was greater than 100 µM, the GI50 (SK-MEL-5) was > 100 µM (inactive) and the GI50 (HT-29) was > 100 µM (inactive). The GI50 (M14) was > 100 µM (inactive), the GI50 (CAKI-1) was > 100 µM (inactive) and the GI50 (COLO 205) was > 100 µM (inactive). The GI50 (U-251) was 20.8 µM (inactive), the GI50 (HCT-116) was > 100 µM (inactive) and the GI50 (NCI/ADR-RES) was > 100 µM (inactive). The GI50 (NCI-H226) was > 100 µM (inactive), the GI50 (OVCAR-5) was > 100 µM (inactive) and the GI50 (PC-3) was > 100 µM (inactive). The GI50 (UACC-257) was > 100 µM (inactive), the GI50 (LOX IMVI) was > 100 µM (inactive) and the GI50 (MOLT-4) was > 100 µM (inactive). The GI50 (UACC-62) was 64.6 µM (inactive) and the GI50 (RXF 393) was 85.1 µM (inactive).

With `Brc1cc(CCOC2CCCCO2)c(-c2sccc2CCOC2CCCCO2)s1` (stereo not given) the GI50 (A549) was 24.8 µM (inactive), the GI50 (ACHN) was 50.8 µM (inactive) and the GI50 (HOP-92) was > 65.2 µM (inactive). For the same compound, the GI50 (HCT-15) was 33.3 µM, the GI50 (SK-MEL-5) was 26.9 µM (inactive) and the GI50 (HT-29) was 61.8 µM (inactive). The GI50 (M14) was 31.8 µM (inactive), the GI50 (CAKI-1) was > 91.4 µM (inactive) and the GI50 (COLO 205) was 43.4 µM (inactive). For the same compound, the GI50 (U-251) was 57.8 µM (inactive), the GI50 (HCT-116) was 23.2 µM (inactive) and the GI50 (NCI/ADR-RES) was 40.7 µM (inactive). The GI50 (NCI-H226) was > 100 µM (inactive), the GI50 (OVCAR-5) was > 100 µM (inactive) and the GI50 (PC-3) was 42.2 µM (inactive). The GI50 (UACC-257) was 35.5 µM (inactive), the GI50 (LOX IMVI) was 26.3 µM (inactive) and the GI50 (MOLT-4) was 22.2 µM (inactive). For the same compound, the GI50 (UACC-62) was 58.5 µM (inactive) and the GI50 (RXF 393) was 0.8 µM (active).

`COc1nc(N=P(c2ccccc2)(c2ccccc2)c2ccccc2)cc(=O)n1C` was tested, and the GI50 (A549) was > 100 µM (inactive), the GI50 (ACHN) was > 100 µM (inactive) and the GI50 (HOP-92) was > 100 µM (inactive). The GI50 (HCT-15) was greater than 100 µM, the GI50 (SK-MEL-5) was > 100 µM (inactive) and the GI50 (HT-29) was > 100 µM (inactive). The GI50 (M14) was > 100 µM (inactive), the GI50 (CAKI-1) was > 100 µM (inactive) and the GI50 (COLO 205) was > 100 µM (inactive). The GI50 (U-251) was > 100 µM (inactive), the GI50 (HCT-116) was > 100 µM (inactive) and the GI50 (NCI/ADR-RES) was > 100 µM (inactive). The GI50 (NCI-H226) was > 100 µM (inactive), the GI50 (OVCAR-5) was > 100 µM (inactive) and the GI50 (PC-3) was > 100 µM (inactive). For the same compound, the GI50 (UACC-257) was > 100 µM (inactive), the GI50 (LOX IMVI) was > 100 µM (inactive) and the GI50 (MOLT-4) was > 100 µM (inactive). For the same compound, the GI50 (UACC-62) was > 100 µM (inactive) and the GI50 (RXF 393) was > 100 µM (inactive).

For `CCOC(=O)c1sc2nc(SC)nc(N3CCCCC3)c2c1N`, the GI50 (A549) was > 100 µM (inactive), the GI50 (ACHN) was > 100 µM (inactive) and the GI50 (HOP-92) was > 100 µM (inactive). For the same compound, the GI50 (HCT-15) was greater than 100 µM, the GI50 (SK-MEL-5) was > 100 µM (inactive) and the GI50 (HT-29) was > 100 µM (inactive). The GI50 (M14) was > 100 µM (inactive), the GI50 (CAKI-1) was > 100 µM (inactive) and the GI50 (COLO 205) was > 100 µM (inactive). For the same compound, the GI50 (U-251) was > 100 µM (inactive), the GI50 (HCT-116) was > 100 µM (inactive) and the GI50 (NCI/ADR-RES) was > 100 µM (inactive). The GI50 (NCI-H226) was > 100 µM (inactive), the GI50 (OVCAR-5) was > 100 µM (inactive) and the GI50 (PC-3) was > 100 µM (inactive). The GI50 (UACC-257) was 5.07 µM (inactive), the GI50 (LOX IMVI) was > 100 µM (inactive) and the GI50 (MOLT-4) was > 100 µM (inactive). The GI50 (UACC-62) was > 100 µM (inactive) and the GI50 (RXF 393) was > 100 µM (inactive).

In the case of `CC1=CC(=O)CC2(C)CCC(C(C)CC(=O)CC(C)C)CC12` (stereo not given), the GI50 (A549) is reported as 17.8 µM (inactive), the GI50 (ACHN) is reported as 17.4 µM (inactive) and the GI50 (HOP-92) is reported as 31.4 µM (inactive). The GI50 (HCT-15) was 38.6 µM, the GI50 (SK-MEL-5) was 20.4 µM (inactive) and the GI50 (HT-29) was 25.8 µM (inactive). The GI50 (M14) was 17.2 µM (inactive), the GI50 (CAKI-1) was 16.4 µM (inactive) and the GI50 (COLO 205) was 17.3 µM (inactive). For the same compound, the GI50 (U-251) was 41.9 µM (inactive), the GI50 (HCT-116) was 16.1 µM (inactive) and the GI50 (NCI/ADR-RES) was 29.6 µM (inactive). For the same compound, the GI50 (NCI-H226) was 24.9 µM (inactive), the GI50 (OVCAR-5) was > 100 µM (inactive) and the GI50 (PC-3) was 19.5 µM (inactive). For the same compound, the GI50 (UACC-257) was 23.9 µM (inactive), the GI50 (LOX IMVI) was 18.9 µM (inactive) and the GI50 (MOLT-4) was 18.3 µM (inactive). For the same compound, the GI50 (UACC-62) was 25.5 µM (inactive) and the GI50 (RXF 393) was 23.6 µM (inactive).
